Assay results taken from ChEMBL document CHEMBL3600358, “Design and synthesis of novel substituted naphthyridines as potential c-Met kinase inhibitors based on MK-2461” (Bioorg Med Chem Lett, 2015).
Values belong to the compound of their own block, whether it stands above or below them.

Legend:
HeLa [1] = test: Antiproliferative activity against human HeLa cells incubated for 48 hrs by MTT assay; assay type: functional, cell-based
A549 = test: Antiproliferative activity against human A549 cells incubated for 48 hrs by MTT assay; assay type: functional, cell-based; details: A549, 48 h
HeLa [2] = test: Effect on total c-Met protein level in human HeLa cells at 1.25 to 20 uM incubated for 24 hrs by Western blot method; assay type: cell-based

Structure (SMILES): CC(=O)Nc1ccc2ncc(-c3cnn(C)c3)cc2n1
IC50 (HeLa [1]): > 50 µM
IC50 (A549): > 50 µM

Structure (SMILES): Cn1cc(-c2cnc3ccc(NC(=O)c4ccc(F)cc4)nc3c2)cn1
IC50 (HeLa [1]): > 50 µM
IC50 (A549): > 50 µM

Structure (SMILES): CCNc1ccc2ncc(-c3cnn(C)c3)cc2n1
IC50 (HeLa [1]): > 50 µM
IC50 (A549): > 50 µM

Structure (SMILES): Cn1cc(-c2cnc3ccc(NCc4ccc(F)cc4)nc3c2)cn1
IC50 (HeLa [1]): 46.6 µM
IC50 (A549): > 50 µM

Structure (SMILES): COc1ccc(CNc2ccc3ncc(-c4cnn(C)c4)cc3n2)cc1
IC50 (HeLa [1]): > 50 µM
IC50 (A549): > 50 µM

Structure (SMILES): Cn1cc(-c2cnc3ccc(NS(=O)(=O)c4ccc(C(F)(F)F)cc4)nc3c2)cn1
IC50 (HeLa [1]): > 50 µM
IC50 (A549): > 50 µM

Structure (SMILES): Cc1ccc(S(=O)(=O)Nc2ccc3ncc(-c4cnn(C)c4)cc3n2)cc1
IC50 (HeLa [1]): > 50 µM
IC50 (A549): 45.5 µM

Structure (SMILES): Cn1cc(-c2cnc3ccc(NS(=O)(=O)c4cccs4)nc3c2)cn1
IC50 (HeLa [1]): 38.4 µM
IC50 (A549): 39.5 µM

Structure (SMILES): CC(=O)Nc1nccc2ncc(-c3cnn(C)c3)cc12
IC50 (HeLa [1]): > 50 µM
IC50 (A549): > 50 µM

Structure (SMILES): COc1ccc(C(=O)Nc2nccc3ncc(-c4cnn(C)c4)cc23)cc1
IC50 (HeLa [1]): > 50 µM
IC50 (A549): > 50 µM

Structure (SMILES): CCNc1nccc2ncc(-c3cnn(C)c3)cc12
IC50 (HeLa [1]): > 50 µM
IC50 (A549): 40.7 µM

Structure (SMILES): Cn1cc(-c2cnc3ccnc(NCC4CC4)c3c2)cn1
IC50 (HeLa [1]): 7.4 µM
IC50 (A549): 8.9 µM

Structure (SMILES): Cn1cc(-c2cnc3ccnc(NCc4ccc(F)cc4)c3c2)cn1
IC50 (HeLa [1]): 9.2 µM
IC50 (A549): 5.2 µM
Activity (HeLa [2]): Non-toxic

Structure (SMILES): COc1ccc(CNc2nccc3ncc(-c4cnn(C)c4)cc23)cc1
IC50 (HeLa [1]): 42.2 µM
IC50 (A549): > 50 µM

Structure (SMILES): Cc1ccc(S(=O)(=O)Nc2nccc3ncc(-c4cnn(C)c4)cc23)cc1
IC50 (HeLa [1]): > 50 µM
IC50 (A549): > 50 µM

Structure (SMILES): Cn1cc(-c2cnc3ccnc(NS(=O)(=O)c4c(Cl)cccc4Cl)c3c2)cn1
IC50 (HeLa [1]): > 50 µM
IC50 (A549): > 50 µM

Further lines, results first:

IC50 (HeLa [1]): > 50 µM
IC50 (A549): > 50 µM
Structure (SMILES): Cn1cc(-c2cnc3ccc(N)nc3c2)cn1

IC50 (HeLa [1]): > 50 µM
IC50 (A549): > 50 µM
Structure (SMILES): Cn1cc(-c2cnc3ccc(NC(=O)C4CC4)nc3c2)cn1

IC50 (HeLa [1]): 4.9 µM
IC50 (A549): 6.4 µM
Structure (SMILES): COc1ccc(C(=O)Nc2ccc3ncc(-c4cnn(C)c4)cc3n2)cc1

IC50 (HeLa [1]): > 50 µM
IC50 (A549): > 50 µM
Structure (SMILES): Cn1cc(-c2cnc3ccc(NC(=O)c4cccnc4)nc3c2)cn1

IC50 (HeLa [1]): > 50 µM
IC50 (A549): > 50 µM
Structure (SMILES): Cn1cc(-c2cnc3ccc(NCC4CC4)nc3c2)cn1

IC50 (HeLa [1]): > 50 µM
IC50 (A549): > 50 µM
Structure (SMILES): Cn1cc(-c2cnc3ccc(NS(=O)(=O)c4ccc(Cl)cc4Cl)nc3c2)cn1

IC50 (HeLa [1]): 40.8 µM
IC50 (A549): 33.4 µM
Structure (SMILES): Cn1cc(-c2cnc3ccnc(N)c3c2)cn1

IC50 (HeLa [1]): > 50 µM
IC50 (A549): > 50 µM
Structure (SMILES): Cn1cc(-c2cnc3ccnc(NC(=O)C4CC4)c3c2)cn1

IC50 (HeLa [1]): > 50 µM
IC50 (A549): > 50 µM
Structure (SMILES): Cn1cc(-c2cnc3ccnc(NC(=O)c4ccc(F)cc4)c3c2)cn1

IC50 (HeLa [1]): > 50 µM
IC50 (A549): > 50 µM
Structure (SMILES): Cn1cc(-c2cnc3ccnc(NC(=O)c4cccnc4)c3c2)cn1

IC50 (HeLa [1]): > 50 µM
IC50 (A549): > 50 µM
Structure (SMILES): Cn1cc(-c2cnc3ccnc(NS(=O)(=O)c4ccc(C(F)(F)F)cc4)c3c2)cn1

IC50 (HeLa [1]): 17.4 µM
IC50 (A549): 9.4 µM
Structure (SMILES): Cn1cc(-c2cnc3ccnc(NS(=O)(=O)c4cccs4)c3c2)cn1
